Experimental data as given in ChEMBL document CHEMBL1201862, “PubChem BioAssay data set” (2004).
Calls of active or inactive are those of the source.

What was measured:
[1] = ADAM10 protease inhibitors, dose response, selectivity assay for ADAM17 exosite inhibitor project, biochemical, FRET peptide substrate, recombinant human ADAM10 (AID 743259);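 also: ADAM10 enzyme cleaving a FRET peptide substrate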
[2] = biological target: Disintegrin and metalloproteinase domain-containing protein 17 (Homo sapiens, UniProt P78536); assay: exosite inhibitors of ADAM17, dose response, biochemical (AID 743260)
Chain of Disintegrin and metalloproteinase domain-containing protein 17 (P78536 whole entry, the tested form may be a part): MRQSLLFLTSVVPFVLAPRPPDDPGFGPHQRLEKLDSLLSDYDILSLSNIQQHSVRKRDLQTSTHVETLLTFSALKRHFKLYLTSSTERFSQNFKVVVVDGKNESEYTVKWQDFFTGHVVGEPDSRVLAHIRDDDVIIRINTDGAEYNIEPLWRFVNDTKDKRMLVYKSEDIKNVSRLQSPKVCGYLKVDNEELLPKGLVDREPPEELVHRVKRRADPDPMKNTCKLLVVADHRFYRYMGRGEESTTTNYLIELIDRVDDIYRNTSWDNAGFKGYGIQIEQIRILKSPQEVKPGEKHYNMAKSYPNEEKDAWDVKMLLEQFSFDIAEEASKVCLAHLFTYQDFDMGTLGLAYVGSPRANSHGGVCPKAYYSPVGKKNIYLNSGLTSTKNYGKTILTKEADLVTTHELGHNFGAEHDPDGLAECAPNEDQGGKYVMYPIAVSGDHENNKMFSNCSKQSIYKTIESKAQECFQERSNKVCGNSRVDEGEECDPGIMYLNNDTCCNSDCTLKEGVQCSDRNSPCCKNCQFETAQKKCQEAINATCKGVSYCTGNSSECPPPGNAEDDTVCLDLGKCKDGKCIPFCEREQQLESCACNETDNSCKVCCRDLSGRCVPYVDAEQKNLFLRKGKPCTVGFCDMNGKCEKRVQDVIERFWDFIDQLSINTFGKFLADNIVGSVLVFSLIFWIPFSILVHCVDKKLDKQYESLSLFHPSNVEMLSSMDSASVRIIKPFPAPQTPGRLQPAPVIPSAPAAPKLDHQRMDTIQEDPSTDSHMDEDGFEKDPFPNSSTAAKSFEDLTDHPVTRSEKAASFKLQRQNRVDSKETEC

[3] = biological target: T1, Replicative DNA helicase DnaB (Mycobacterium tuberculosis, UniProt P9WMR3); assay: DnaB intein splicing inhibitors, dose response, biochemical, cell-free fluorescence (AID 449749); format: functional
T1 sequence (P9WMR3 whole entry): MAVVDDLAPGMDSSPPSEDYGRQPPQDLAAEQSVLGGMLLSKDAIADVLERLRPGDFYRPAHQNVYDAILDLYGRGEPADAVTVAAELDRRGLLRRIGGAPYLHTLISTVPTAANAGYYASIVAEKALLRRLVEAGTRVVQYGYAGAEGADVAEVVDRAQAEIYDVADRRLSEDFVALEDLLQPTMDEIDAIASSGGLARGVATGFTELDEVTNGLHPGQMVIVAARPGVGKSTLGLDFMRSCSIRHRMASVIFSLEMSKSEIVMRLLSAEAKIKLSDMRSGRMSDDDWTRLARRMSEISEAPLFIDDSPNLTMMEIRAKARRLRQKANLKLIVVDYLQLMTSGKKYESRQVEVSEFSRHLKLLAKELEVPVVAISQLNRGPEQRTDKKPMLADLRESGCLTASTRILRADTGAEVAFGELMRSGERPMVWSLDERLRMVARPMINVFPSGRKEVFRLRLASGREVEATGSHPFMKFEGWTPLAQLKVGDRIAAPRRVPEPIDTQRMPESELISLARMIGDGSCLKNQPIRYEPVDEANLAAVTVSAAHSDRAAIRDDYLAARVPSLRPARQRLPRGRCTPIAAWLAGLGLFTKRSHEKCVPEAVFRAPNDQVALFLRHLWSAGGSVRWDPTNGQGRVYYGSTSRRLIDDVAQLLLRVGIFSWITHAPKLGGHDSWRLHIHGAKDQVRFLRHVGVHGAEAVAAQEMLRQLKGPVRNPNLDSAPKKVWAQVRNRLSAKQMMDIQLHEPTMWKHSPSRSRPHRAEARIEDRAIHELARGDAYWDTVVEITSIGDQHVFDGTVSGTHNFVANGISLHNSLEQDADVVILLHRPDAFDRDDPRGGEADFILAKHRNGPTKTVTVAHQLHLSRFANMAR

Protein RecA = biological target: T2, Protein RecA (Mycobacterium tuberculosis, UniProt P9WHJ3); assay: Fluorescence Cell-Free Homogeneous Dose Retest to Identify Inhibitors of RecA-Intein Splicing Activity. [Related pubchem assays (depositor defined):AID2097, AID2223, AID489010, AID492950]; format: functional
T2 sequence (P9WHJ3 whole entry): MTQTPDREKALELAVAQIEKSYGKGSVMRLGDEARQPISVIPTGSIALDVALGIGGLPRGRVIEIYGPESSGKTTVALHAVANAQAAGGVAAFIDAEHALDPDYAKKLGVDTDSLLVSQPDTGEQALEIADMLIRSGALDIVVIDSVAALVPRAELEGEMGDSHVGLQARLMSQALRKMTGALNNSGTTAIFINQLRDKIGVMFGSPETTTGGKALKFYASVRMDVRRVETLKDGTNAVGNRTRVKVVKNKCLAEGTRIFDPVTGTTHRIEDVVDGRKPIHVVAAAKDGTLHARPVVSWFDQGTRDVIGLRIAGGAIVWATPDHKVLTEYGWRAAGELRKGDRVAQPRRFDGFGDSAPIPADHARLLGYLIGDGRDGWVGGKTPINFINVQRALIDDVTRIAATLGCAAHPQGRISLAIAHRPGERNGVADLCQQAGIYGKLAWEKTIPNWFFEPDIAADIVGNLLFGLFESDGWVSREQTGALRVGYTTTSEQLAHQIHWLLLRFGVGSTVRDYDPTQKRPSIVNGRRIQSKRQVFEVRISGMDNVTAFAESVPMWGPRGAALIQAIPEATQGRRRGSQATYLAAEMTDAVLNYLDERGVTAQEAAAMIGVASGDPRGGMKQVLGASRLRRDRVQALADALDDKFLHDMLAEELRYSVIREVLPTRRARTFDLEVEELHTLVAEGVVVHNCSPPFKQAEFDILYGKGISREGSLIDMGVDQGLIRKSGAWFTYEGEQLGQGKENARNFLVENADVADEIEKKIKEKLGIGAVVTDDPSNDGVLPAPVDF

[4] = biological target: T3, Sentrin-specific protease 8 (Homo sapiens, UniProt Q96LD8); format: functional
T3 sequence (Q96LD8 whole entry): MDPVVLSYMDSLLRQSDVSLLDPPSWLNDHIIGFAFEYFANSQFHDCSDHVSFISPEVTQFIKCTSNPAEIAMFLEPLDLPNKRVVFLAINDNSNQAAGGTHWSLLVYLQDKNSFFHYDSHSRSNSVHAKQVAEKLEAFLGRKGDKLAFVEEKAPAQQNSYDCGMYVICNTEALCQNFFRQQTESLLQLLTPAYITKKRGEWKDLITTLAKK

Caspase-3 = biological target: T4, Caspase-3 (Homo sapiens, UniProt P42574); assay: Dose-response confirmation of uHTS inhibitor hits of Sentrin-Specific Protease 8 in a Caspase-3 Fluorescence assay.; format: functional
T4 sequence (P42574 whole entry): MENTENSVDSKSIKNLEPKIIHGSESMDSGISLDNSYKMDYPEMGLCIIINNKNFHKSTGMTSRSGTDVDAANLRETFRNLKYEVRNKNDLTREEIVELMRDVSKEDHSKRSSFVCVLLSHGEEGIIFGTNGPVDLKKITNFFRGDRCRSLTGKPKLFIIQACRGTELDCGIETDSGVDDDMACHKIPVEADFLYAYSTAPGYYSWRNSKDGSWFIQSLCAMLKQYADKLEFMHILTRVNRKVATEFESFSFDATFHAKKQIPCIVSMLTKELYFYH

[5] = biological target: T5, Mannose-6-phosphate isomerase (Homo sapiens, UniProt P34949); assay: human PMI inhibitors, high substrate, primary screen, biochemical, fluorescence intensity, high mannose 6-phosphate (AID 1220)
T5 sequence (P34949 whole entry): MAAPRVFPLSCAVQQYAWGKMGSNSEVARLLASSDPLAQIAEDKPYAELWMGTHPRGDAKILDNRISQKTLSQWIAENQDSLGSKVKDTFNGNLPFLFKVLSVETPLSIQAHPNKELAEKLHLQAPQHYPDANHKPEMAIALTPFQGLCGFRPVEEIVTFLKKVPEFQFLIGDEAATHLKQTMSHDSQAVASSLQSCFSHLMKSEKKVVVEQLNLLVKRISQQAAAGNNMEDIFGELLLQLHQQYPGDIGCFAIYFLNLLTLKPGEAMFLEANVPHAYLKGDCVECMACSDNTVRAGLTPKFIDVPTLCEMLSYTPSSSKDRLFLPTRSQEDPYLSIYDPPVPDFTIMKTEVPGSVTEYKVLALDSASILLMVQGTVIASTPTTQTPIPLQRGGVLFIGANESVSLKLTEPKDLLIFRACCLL

[6] = biological target: T3, Sentrin-specific protease 8; format: functional; remark: listed apart in the source
[7] = biological target: T6, Nuclear receptor subfamily 0 group B member 1 (Homo sapiens, UniProt P51843); format: functional, cell-based;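 also: HEK293T cells transfected with SF-1 and DAX-1 plus StAR promoter luciferase reporter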
T6 sequence (P51843 whole entry): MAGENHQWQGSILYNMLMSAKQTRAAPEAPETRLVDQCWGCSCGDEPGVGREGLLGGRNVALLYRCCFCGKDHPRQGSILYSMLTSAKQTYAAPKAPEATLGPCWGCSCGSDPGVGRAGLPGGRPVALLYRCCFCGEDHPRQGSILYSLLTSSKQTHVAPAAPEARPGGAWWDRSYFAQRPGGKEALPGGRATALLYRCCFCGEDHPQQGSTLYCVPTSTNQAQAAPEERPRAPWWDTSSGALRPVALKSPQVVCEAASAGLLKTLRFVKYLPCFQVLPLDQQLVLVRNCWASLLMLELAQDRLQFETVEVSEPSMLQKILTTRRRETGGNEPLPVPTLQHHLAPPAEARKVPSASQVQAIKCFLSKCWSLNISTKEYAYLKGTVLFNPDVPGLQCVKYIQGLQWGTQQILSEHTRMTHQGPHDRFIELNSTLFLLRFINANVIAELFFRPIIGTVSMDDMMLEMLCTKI

cells [8] = format: functional, cell-based
[9] = biological target: T7, High affinity choline transporter 1 (Homo sapiens, UniProt Q9GZV3); assay: CHT inhibitors, dose response, cell-based, 5-point CRC, membrane potential dye (AID 504840); format: functional
T7 sequence (Q9GZV3 whole entry): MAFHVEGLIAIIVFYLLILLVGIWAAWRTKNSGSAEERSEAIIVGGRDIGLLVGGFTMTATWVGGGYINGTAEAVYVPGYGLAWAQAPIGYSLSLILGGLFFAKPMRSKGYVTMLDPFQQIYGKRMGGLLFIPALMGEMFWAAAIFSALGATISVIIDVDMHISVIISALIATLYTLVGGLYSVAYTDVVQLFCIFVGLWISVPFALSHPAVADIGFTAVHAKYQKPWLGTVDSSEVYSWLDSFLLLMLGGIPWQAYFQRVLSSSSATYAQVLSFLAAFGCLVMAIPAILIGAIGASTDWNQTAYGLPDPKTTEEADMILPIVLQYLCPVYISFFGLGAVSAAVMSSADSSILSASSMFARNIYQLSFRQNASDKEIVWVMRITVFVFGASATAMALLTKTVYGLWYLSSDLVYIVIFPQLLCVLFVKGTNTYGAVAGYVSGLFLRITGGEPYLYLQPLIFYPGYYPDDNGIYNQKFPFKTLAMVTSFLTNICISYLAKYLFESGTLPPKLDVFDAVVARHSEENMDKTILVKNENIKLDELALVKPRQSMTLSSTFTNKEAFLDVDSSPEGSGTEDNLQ

[10] = MITF: Counter assay: A375 proliferation Measured in Cell-Based System Using Plate Reader - 2084-03_Inhibitor_Dose_DryPowder_Activity_Set8.; format: functional; conditions: A-375
[11] = MITF Orthogonal Assay: SK-MEL-5 CTG Assay Measured in Cell-Based System Using Plate Reader - 2084-02_Inhibitor_Dose_DryPowder_Activity_Set7.; format: functional
[12] = TRPM1 promoter luciferase reporter signal decrease, dose response, MITF inhibitor project, cell-based, SK-MEL-5, dry powder, set 8 (AID 624430); format: functional
[13] = HepG2 cell cytotoxicity, dose response, cytotoxicity control, ATP luminescence, cherry-pick, activator set 2 (AID 1053143); format: functional, cell-based
cells [14] = format: functional, cell-based; remark: listed apart in the source
cells [15] = format: functional, cell-based; remark: listed apart in the source
Galanin receptor type 3 = Galanin receptor type 3 (Homo sapiens, UniProt O60755); assay: Fluorescence-based cell-based primary high throughput dose response assay to identify antagonists of the Galanin Receptor 3 (GalR3).; format: functional
Chain of Galanin receptor type 3 (O60755 whole entry): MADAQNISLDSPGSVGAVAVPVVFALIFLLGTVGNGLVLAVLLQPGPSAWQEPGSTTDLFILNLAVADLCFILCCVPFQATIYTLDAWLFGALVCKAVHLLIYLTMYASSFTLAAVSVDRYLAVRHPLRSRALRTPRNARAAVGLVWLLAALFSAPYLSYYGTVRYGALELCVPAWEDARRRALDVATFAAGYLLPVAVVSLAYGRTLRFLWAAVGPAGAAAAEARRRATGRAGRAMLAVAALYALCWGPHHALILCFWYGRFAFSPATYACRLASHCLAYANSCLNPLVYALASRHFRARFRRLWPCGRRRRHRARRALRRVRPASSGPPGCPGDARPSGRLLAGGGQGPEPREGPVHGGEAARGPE

[16] = cytotoxicity in KRAS-transformed pancreatic duct cells, primary screen, cell-based, fluorescence, HTS (AID 431); format: functional; conditions: Homo sapiens;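 also: cell line used: HPDE-C7K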
[17] = cytotoxicity in HPDE-C7 cells, cell-based, fluorescence, HTS (AID 430); format: functional; conditions: Homo sapiens
cells [18] = format: functional, cell-based; conditions: HEK-CNG
[19] = T. cruzi growth inhibition in host cells, dose response, cell-based, plate reader, dry powder, set 2 (AID 652275); format: functional
Paired box protein Pax-8 = Paired box protein Pax-8 (Homo sapiens, UniProt Q06710); assay: inhibitors of PAX8-driven TPO luciferase reporter, dose response, RMG-I cells, cherry-pick (AID 687027); format: functional, cell-based;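 also: luciferase reporter driven by Pax8 target thyroperoxidase promoter measured by SteadyGlo luminescence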
Chain of Paired box protein Pax-8 (Q06710 whole entry): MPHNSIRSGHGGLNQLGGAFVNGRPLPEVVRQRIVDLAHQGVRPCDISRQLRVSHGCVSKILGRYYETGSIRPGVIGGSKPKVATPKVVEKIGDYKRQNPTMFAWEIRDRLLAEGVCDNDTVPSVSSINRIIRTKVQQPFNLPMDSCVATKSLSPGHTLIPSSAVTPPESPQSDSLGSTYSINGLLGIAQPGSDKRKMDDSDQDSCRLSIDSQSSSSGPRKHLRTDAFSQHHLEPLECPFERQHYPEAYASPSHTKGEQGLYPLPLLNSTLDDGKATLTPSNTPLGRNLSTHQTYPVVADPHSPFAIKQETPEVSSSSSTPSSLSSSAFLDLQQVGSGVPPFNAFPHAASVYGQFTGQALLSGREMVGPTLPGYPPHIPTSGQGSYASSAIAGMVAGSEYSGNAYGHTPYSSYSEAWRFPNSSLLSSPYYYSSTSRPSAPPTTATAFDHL

[20] = non-specific cell cytotoxicity, dose response, cytotoxicity control for PAX8 inhibitor project, plate reader, dry powder samples (AID 743021); format: functional, cell-based

## COc1cccc(C(Nc2ccccc2)c2ccc3ccc(C)nc3c2O)c1 (stereo not given)
[1]
  IC50: 18.5 µM (inactive)
[2]
  IC50: > 69.2 µM (inactive)

## CCOC(=O)c1nn(-c2ccccc2C)c(=O)c2c(N)scc12
[3]
  AC50: > 120 µM (inactive)
Protein RecA
  EC50: 11.4 µM (active)
[4]
  IC50: 17.3 µM (active)
Caspase-3
  IC50: 93.3 µM (inactive)
[5]
  IC50: > 50 µM (not active)
[6]
  IC50: 4.12 µM (active)

## CC(C)c1cccc(-c2csc(C(O)c3cccc(Cl)c3)n2)c1 (stereo not given)
[1]
  IC50: 42.8 µM (inactive)
[2]
  IC50: > 69.5 µM (inactive)

## O=C(Nc1nnc(SCc2ccccc2F)s1)C1=COCCO1
[7]
  IC50: > 67.6 µM (inactive)
Cells [8]
  IC50: > 67.6 µM (inactive)

## COc1ccccc1Nc1nnc(SCC2CCCCO2)s1 (stereo not given)
[7]
  IC50: > 0.834 µM (active)
Cells [8]
  IC50: > 67.5 µM (inactive)
[9]
  IC50: 4.17 µM (active)

## CC(C)N1CCN(C2=C(Nc3ccc(I)cc3)C(=O)c3ccccc3C2=O)CC1
[10]
  AC50: 33.9 µM (active)
[11]
  AC50: 10.8 µM (active)
[12]
  AC50: 2.96 µM (active)

## NC(=O)c1ccc(NC(=O)C#Cc2ccccc2)cc1
[13]
  AC50: 26 µM (active)

## COc1ccc2nc(NC(=O)c3cccs3)sc2c1
Cells [14]
  EC50: 7.18 µM (active)
[13]
  AC50: 26 µM (active)
Cells [15]
  EC50: > 350 µM (not active)

## CCn1c2ccccc2c2cc(C3C(C#N)=C(N)Oc4[nH]nc(COC)c43)ccc21 (stereo not given)
[3]
  AC50: > 380 µM (inconclusive)
Galanin receptor type 3
  IC50: > 29.9 µM (inactive)
Protein RecA
  EC50: 2.7 µM (active)
[16]
  EC50: 7.72 µM (active)
[17]
  EC50: 7.03 µM (active)
Cells [18]
  EC50: > 29.9 µM (inactive)

## CC(C)N1CC2(CN(Cc3cccc(F)c3)C2)Oc2c(NC(=O)c3ccncc3)cccc2C1=O
[19]
  AC50: 0.41 µM (active)

## CN(C)C(=O)c1cccc(-c2ccc([C@H]3[C@@H](CO)N4CCCCN(C(=O)C5CCC5)C[C@H]34)cc2)c1
[19]
  AC50: 1.29 µM (active)

## COc1ccc(-c2cc(CNc3nc(NC(C)C)nc4cc(-c5ccccc5)sc34)on2)cc1
Paired box protein Pax-8
  AC50: 9.84 µM (active)
[20]
  AC50: 18.8 µM (active)

## CC(C)N1CCN(C2=C(Nc3ccc(Cl)c(Cl)c3)C(=O)c3ccccc3C2=O)CC1
[10]
  AC50: 19.4 µM (active)
[11]
  AC50: 8.71 µM (active)
[12]
  AC50: 3.21 µM (active)
